Legend:
[1] = system: 5-HT1B knockout (1BKO) mice; experiment: DRL-36s schedule after FR5 conditioning, 5-HT1B knockout mice; format: in vivo
Method: Experiments were conducted in eight identical mouse operant chambers (16×14×13 cm) with stainless steel grid floors (ENV-307M; Med Associates Inc., Georgia, Vt., USA) housed in sound-insulating and ventilated cubicles. Each chamber was equipped with two ultra-sensitive retractable levers, one on each side of a food cup containing photocells to register nose poke behavior and in which a pellet dispenser delivered 20 mg food pellets (Formula A/I, P.J. Noyes Company Inc., Lancaster, N.H., USA). A red house light (50 lux) was located in the center of the wall opposite to the food cup and levers. Stimulus lights were located above each lever and above the food cup. Experimental sessions were controlled and data were recorded by a computer.
Mice trained on DRL procedure first received operant conditioning. DRL-36s task was adapted from procedures used in rats (O'Donnell and Seiden, supra). Briefly, mice first learned to respond for food under a DRL 6 sec schedule, which means that mice had to wait at least 6 seconds between successive lever presses in order to obtain a food reward. Subsequently the schedule requirement was increased every session in steps of 6 sec to 36 sec (DRL 36 sec). Each session started with the illumination of the house light, the stimulus light above the food cup and the presentation of the left lever for the duration of the session. […] If the mouse presses too soon, no reinforcement is given, the clock is reset to zero, and a new 36-sec waiting period starts. In this way, the DRL-36s schedule task primarily measures waiting strategies which reflect hyperactivity-impulsivity behaviors associated with ADHD. Animals were trained until performances on the DRL 36 sec schedule had stabilized (approximately 25 sessions). All training sessions lasted 60 min and were conducted 5 days per week from Monday-Friday. The total number of lever presses (responses), the total number of reinforcements, and the inter-response times (IRT) are recorded.
Data were analyzed as described elsewhere (Richards et al., J. Exp. Anal. Behav. 60:361-385, 1993; Sabol et al., Psychopharmacology 121:57-65, 1995). The inter-response time (IRT) analysis included three measures for the characterization of DRL 36 sec IRT distributions: peak area, peak location and burst ratio. Only peak area (PkA) and peak location (PkL) are presented. The PkA measure is the area of the obtained IRT distribution of a mouse above the corresponding negative exponential, a computation based on mean of obtained IRT durations excluding the burst component of IRT<3 sec (see Richards et al., supra, for details). […] PkL is calculated as the median of the area of the obtained IRT distribution above the corresponding negative exponential. […]

[2] = in vivo; cited from earlier work

c1cc2c(c(N3CCNCC3)c1)OCCO2 [eltoprazine, 1-(2,3-dihydro-1,4-benzodioxanyl-5-yl) piperazine]
number of reinforcements ([1]; 0.5 mg/kg and 1 mg/kg i.p. (FIG. 13A)): significantly decreased reinforcements
response rate ([1]; 0.5 mg/kg i.p. (FIG. 13B)): significantly decreased response rates
absolute bioavailability [2]: about 95%
cumulative renal excretion of unchanged eltoprazine [2]: about 40%
dose dependence of plasma concentrations [2]: increase in a linear dose-dependent manner
plasma elimination half-life [2]: 5 to 12 h
terminal half-life [2]: 7 to 9 h
time to maximum plasma concentration after administration [2]: 1 to 4 h

Source: patent US7557109B2, “Treatment for attention-deficit hyperactivity disorder” (priority 2001, dated 2009)
